From paper PMC4466525, “Design, Synthesis and Structure-Activity Relationship Studies of Novel Survivin Inhibitors with Potent Anti-Proliferative Properties” (PLoS ONE, 2015)
In brackets after ≈: the same amount, converted by molar mass.

What was measured:
[1] = tested on: A375; assay: Cell viability (MTS) anti-proliferative assay, A375; format: cell-based; details: A-375, A375 human melanoma, 48 h treatment, n = 4, read-out: IC50 values ± SEM, A375
Procedure: (§1) The anti-proliferative effect of UC-112 and its analogs were tested in human melanoma (A375, M14 and M14/LCC6MDR1) and human prostate cancer (PC-3) cell lines. All the cell lines were purchased from ATCC (American Type Culture Collection, Manassas, VA). The cancer cells were cultured using the supplemented cell culture medium as described before at 37°C in a humidified atmosphere containing 5% CO2. 5000 cells in logarithm growing phase were seeded overnight into each well of a 96-well plate. Then the cells were continuously incubated with sequential diluted compound solution (10 nM to 100 μM, 100 μl per well) in cell culture medium.

[2] = tested on: M14/LCC6MDR1; assay: Cell viability (MTS) anti-proliferative assay, multidrug-resistant M14/LCC6MDR1; format: cell-based, human
Procedure: as §1

[3] = tested on: NCI-60 cell lines; assay: NCI-60 cell line screening (SRB), whole panel; format: cell-based, human
Procedure: (§2) Four compounds including the parental compound UC-112 were submitted to National Cancer Institute for its NCI-60 cell line screening, initially tested at one concentration (10 μM), and subsequently selected for full five concentration testing following the standard protocols disclosed by NCI [34]. In brief, cells were plated into 96 well micro-titer plates 24 h prior to the treatment of compound solution for 48 h, then the cell viability was read out through absorbance of sulforhodamine B (SRB) staining.

[4] = tested on: renal cancer cell line UO-31; assay: NCI-60 five dose screening, UO-31; format: cell-based; details: Homo sapiens, renal cancer UO-31
Procedure: as §2

[5] = tested on: HCT-15 (colon cancer); assay: NCI-60 five dose screening, HCT-15; format: cell-based; details: Homo sapiens, colon cancer HCT-15
Procedure: as §2

[6] = Aqueous solubility, shake-flask method; format: physicochemical; details: PBS buffer, thermodynamic from solid, PBS pH 7.4, test concentration 200 μM
Procedure: (§3) All these experiments were performed by a contract research service company, Eurofins Panlabs Inc. (Study Number 100017964). Aqueous solubility (μM) was determined using the shake-flask method by comparing the peak area of the principal peak in a calibration standard (200 μM) containing organic solvent (methanol/water, 60/40, v/v) with the peak area of the corresponding peak in a buffer sample. Metabolic stability study was carried out by incubating compound 4g with human liver microsomes. Metabolic stability which is expressed as percent of the parent compound remaining, was calculated by comparing the peak area of the compound at the time point relative to that at time-0. The half-life (T1/2) was estimated from the slope of the initial linear range of the logarithmic curve of compound remaining (%) vs. time. In the cytochrome P450 inhibition study, human liver microsomes (0.1 mg/mL) were incubated with different substrates and compound 4g for 10 minutes. After the incubation, peak areas corresponding to the metabolite of each substrate were recorded. The percent of control activity was then calculated by comparing the peak area obtained in the presence of compound 4g to that obtained in the absence of compound 4g. Subsequently, the percent inhibition was calculated by subtracting the percent control activity from 100.

[7] = biological target: T1, CYP1A (Homo sapiens, UniProt P05177); assay: Cytochrome P450 inhibition, CYP1A; format: in vitro ADME; details: probe phenacetin, substrate phenacetin, human liver microsomes 0.1 mg/mL, read-out: % inhibition of control values, CYP1A
T1 construct: tissue Eurofins Panlabs Inc. (contract research service) Study Number 100017964; host or cells: human liver microsomes
T1 sequence (P05177 2-516 limits assumed): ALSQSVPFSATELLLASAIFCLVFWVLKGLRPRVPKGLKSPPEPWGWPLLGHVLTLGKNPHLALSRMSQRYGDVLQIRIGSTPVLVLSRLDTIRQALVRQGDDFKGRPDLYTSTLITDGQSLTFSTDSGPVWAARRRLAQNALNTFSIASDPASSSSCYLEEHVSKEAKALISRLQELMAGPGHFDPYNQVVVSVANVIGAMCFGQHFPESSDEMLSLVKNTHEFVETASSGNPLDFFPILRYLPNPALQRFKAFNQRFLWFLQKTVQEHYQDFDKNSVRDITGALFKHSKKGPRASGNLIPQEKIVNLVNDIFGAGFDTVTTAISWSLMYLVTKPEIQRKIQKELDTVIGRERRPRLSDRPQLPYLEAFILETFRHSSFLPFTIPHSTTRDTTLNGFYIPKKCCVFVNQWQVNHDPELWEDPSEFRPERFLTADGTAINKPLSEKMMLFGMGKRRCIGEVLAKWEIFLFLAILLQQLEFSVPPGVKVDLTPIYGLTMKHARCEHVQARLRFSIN
Procedure: as §3

[8] = biological target: T2, CYP2C8 (Homo sapiens, UniProt P10632); assay: Cytochrome P450 inhibition, CYP2C8; format: in vitro ADME; details: probe paclitaxel, substrate paclitaxel, human liver microsomes 0.1 mg/mL, read-out: % inhibition of control values, CYP2C8
T2 construct: tissue Eurofins Panlabs Inc. (contract research service) Study Number 100017964; host or cells: human liver microsomes
T2 sequence (P10632 whole entry): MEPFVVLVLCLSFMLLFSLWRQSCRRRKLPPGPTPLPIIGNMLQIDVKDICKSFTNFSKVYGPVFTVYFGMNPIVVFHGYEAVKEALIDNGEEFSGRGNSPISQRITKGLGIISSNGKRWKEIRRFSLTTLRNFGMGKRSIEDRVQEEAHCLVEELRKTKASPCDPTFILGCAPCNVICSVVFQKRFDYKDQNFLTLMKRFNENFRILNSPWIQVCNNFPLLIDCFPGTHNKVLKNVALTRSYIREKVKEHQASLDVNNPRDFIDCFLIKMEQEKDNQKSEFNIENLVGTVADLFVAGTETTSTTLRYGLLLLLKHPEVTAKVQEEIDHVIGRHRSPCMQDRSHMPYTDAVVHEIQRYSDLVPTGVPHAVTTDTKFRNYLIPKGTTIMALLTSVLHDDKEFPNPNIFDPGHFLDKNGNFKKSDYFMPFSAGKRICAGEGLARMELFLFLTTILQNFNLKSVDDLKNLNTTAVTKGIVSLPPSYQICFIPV
Procedure: as §3

[9] = biological target: T3, CYP2C9 (Homo sapiens, UniProt P11712); assay: Cytochrome P450 inhibition, CYP2C9; format: in vitro ADME; details: probe diclofenac, substrate diclofenac, human liver microsomes 0.1 mg/mL, read-out: % inhibition of control values, CYP2C9
T3 construct: tissue Eurofins Panlabs Inc. (contract research service) Study Number 100017964; host or cells: human liver microsomes
T3 sequence (P11712 whole entry): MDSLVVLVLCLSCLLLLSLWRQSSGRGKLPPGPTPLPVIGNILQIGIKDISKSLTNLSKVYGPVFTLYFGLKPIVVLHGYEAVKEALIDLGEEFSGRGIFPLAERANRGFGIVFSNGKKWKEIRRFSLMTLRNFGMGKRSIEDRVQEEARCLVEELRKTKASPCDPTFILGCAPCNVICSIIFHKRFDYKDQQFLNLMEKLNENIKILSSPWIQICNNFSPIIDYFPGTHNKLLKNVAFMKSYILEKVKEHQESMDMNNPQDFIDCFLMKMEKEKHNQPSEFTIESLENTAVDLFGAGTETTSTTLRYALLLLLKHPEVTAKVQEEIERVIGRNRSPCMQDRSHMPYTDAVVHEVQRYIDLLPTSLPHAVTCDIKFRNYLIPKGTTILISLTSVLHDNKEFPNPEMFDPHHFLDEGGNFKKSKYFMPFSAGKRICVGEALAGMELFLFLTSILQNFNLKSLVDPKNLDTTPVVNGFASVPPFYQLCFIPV
Procedure: as §3

[10] = biological target: T4, CYP2C19 (Homo sapiens, UniProt P33261); assay: Cytochrome P450 inhibition, CYP2C19; format: in vitro ADME; details: probe omeprazole, substrate omeprazole, human liver microsomes 0.1 mg/mL, read-out: % inhibition of control values, CYP2C19
T4 construct: tissue Eurofins Panlabs Inc. (contract research service) Study Number 100017964; host or cells: human liver microsomes
T4 sequence (P33261 whole entry): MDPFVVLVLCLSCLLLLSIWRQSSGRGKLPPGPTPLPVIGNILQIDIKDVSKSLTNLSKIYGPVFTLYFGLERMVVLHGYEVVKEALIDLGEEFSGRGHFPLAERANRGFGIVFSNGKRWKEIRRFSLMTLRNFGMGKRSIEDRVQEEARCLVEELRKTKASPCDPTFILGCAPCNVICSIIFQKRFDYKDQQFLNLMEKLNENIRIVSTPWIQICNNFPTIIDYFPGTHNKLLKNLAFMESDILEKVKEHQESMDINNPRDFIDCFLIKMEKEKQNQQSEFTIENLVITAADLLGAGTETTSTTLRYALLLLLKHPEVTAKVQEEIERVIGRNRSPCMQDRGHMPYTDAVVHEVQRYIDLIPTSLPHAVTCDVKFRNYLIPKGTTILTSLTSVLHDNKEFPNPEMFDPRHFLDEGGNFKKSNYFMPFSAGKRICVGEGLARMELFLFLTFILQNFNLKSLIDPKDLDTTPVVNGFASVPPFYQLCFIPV
Procedure: as §3

[11] = biological target: T5, CYP2D6 (Homo sapiens, UniProt P10635); assay: Cytochrome P450 inhibition, CYP2D6; format: in vitro ADME; details: probe dextromethorphan, substrate dextromethorphan, human liver microsomes 0.1 mg/mL, read-out: % inhibition of control values, CYP2D6
T5 construct: tissue Eurofins Panlabs Inc. (contract research service) Study Number 100017964; host or cells: human liver microsomes
T5 sequence (P10635 whole entry): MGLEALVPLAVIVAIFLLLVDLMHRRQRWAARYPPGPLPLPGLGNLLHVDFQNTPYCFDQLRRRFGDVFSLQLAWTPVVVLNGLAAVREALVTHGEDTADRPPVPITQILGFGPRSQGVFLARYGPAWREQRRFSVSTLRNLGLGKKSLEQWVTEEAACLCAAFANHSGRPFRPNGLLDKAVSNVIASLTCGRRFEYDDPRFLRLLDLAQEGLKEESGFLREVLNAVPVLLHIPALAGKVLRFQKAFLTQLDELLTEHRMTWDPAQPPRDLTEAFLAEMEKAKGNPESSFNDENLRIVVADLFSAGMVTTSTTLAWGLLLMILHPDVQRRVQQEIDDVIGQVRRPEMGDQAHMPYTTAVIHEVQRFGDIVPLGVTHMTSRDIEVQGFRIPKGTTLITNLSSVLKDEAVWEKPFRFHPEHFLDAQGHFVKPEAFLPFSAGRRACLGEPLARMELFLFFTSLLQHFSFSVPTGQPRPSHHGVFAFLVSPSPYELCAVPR
Procedure: as §3

[12] = tested on: caspase 3/7; assay: Caspase 3/7 functional assay (Caspase-Glo 3/7); format: cell-based, human; details: 1 μM, 24 h, A375 or PC-3 cells, N = 3
Procedure: The caspase 3/7 activity of cancer cells treated by DMSO control or compound of interest was analyzed using Glo Caspase-Glo 3/7 kit from Promega Corporation (Madison, WI) as per manufacturer’s instructions in similar protocol as described before. The readings of relative luminescence unit were normalized by the cell viability read from the same well determined by compatible CytoTox-Fluor Cytotoxicity assay kit (Promega, WI).

[13] = biological target: T6, survivin (Homo sapiens, UniProt O15392); assay: DARTS assay, survivin; format: binding; details: 20 μM, pronase-digested A375 or M14 cell lysates
T6 construct: endogenous in cells; host or cells: A375 cells
T6 sequence (O15392 whole entry): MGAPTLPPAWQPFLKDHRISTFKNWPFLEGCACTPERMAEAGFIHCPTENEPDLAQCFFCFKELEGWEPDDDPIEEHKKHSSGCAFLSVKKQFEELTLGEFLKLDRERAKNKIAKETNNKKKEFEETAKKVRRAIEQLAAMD
Procedure: (§4) Drug affinity responsive target stability (DARTS) assay was performed to identify the protein targets of UC-112 analogs in A375 or M14 cell lysates following the protocols described in the literature. Briefly, A375 or M14 lysates were prepared in non-denaturing M-PER lysis buffer (Thermo Fisher Scientific, Waltham, MA) with protease and phosphatase inhibitors. Then TNC (Tris, NaCl, CaCl2) buffer was added into cell lysates before the total protein concentration of lysate being determined by BCA protein assay kit (Thermo Fisher Scientific, Waltham, MA). The lysates were split into two groups: one group was added with compound of interest solution, the other group was added with same amount of vehicle (DMSO). The samples were mixed thoroughly and incubated at room temperature for 1 h. Then 10 mg/mL pronase stock solution was added into both compound treated or vehicle control groups to achieve the final dilution of 1:100, 1:300, 1:1000 and 1:3000. One aliquot of each group was kept as un-digested control. The proteolysis was performed at room temperature for 30 min before ice cold protease inhibitor stock being added into the mixture. Then SDS loading buffer was added into all the samples and heated to 70°C for 10 min. Finally, the results were analyzed by SDS-PAGE and immunoblotting.

[14] = tested on: XIAP, cIAP1 or cIAP2; assay: DARTS assay, other IAPs; format: binding, human; details: 20 μM, pronase-digested A375 or M14 cell lysates
Procedure: as §4

Compound: CC(C)c1ccc(COCc2cc(CN3CCCC3)c(O)c3ncccc23)cc1 [4g, 5-(((4-isopropylbenzyl)oxy)methyl)-7-(pyrrolidin-1-ylmethyl)quinolin-8-ol]
- IC50 [1]: 900 ± 100 nM
- IC50 ([2]; Homo sapiens, 48 h, multidrug-resistant M14/LCC6MDR1 melanoma, 48 h treatment, MTS, n = 4, read-out: IC50 values ± SEM, M14/LCC6MDR1): 1800 ± 400 nM
- Resistance Index ([2]; IC50 on M14/LCC6MDR1 divided by IC50 on parental M14): 2.3
- GI50 ([3]; Homo sapiens, five dose testing, 48 h, SRB, read-out: Average GI50 over all cancer cell lines in the NCI-60 panel): 500 nM
- Activity in NCI-60 one-concentration screening ([3]; one concentration, 10 μM): good activity
- GI50 [4]: 52.5 nM
- GI50 [5]: 46.8 nM
- solubility [6]: 149 µM (≈ 58.1 µg/mL)
- inhibition at 10 min [7]: 18%
- inhibition at 10 min [8]: 21%
- inhibition at 10 min [9]: 17%
- inhibition at 10 min [10]: 45%
- inhibition at 10 min [11]: 87%
- Caspase 3/7 activation relative to DMSO control group [12]: up to 4 folds
- Protease susceptibility of survivin (DARTS) [13]: significantly reduced
- Effect on protease susceptibility of other IAPs (DARTS) [14]: negligible effects
